Laboratory results taken from patent publication US5294724A, “4-hydroxytetrahydropyran-2-ones and the corresponding dihydroxycarboxylic acid derivatives, salts and esters and a process for their preparation” (priority 1989, dated 1994).

Experiments:
HMG-CoA reductase = target: T1, HMG-CoA reductase (Rattus norvegicus, UniProt P51639); test: Inhibition of HMG-CoA reductase activity in solubilized enzyme preparations from rat liver microsomes; assay type: biochemical; details: sodium salts of the dihydroxycarboxylic acids; mean of 3 parallel samples; read-out: IC50 (molar concentration necessary for a 50% inhibition)
T1 construct: solubilized enzyme preparations from liver microsomes of rats; from tissue; host or cells: rat liver microsomes (cholestyramine-induced rats), solubilized
T1 sequence (P51639 1-887): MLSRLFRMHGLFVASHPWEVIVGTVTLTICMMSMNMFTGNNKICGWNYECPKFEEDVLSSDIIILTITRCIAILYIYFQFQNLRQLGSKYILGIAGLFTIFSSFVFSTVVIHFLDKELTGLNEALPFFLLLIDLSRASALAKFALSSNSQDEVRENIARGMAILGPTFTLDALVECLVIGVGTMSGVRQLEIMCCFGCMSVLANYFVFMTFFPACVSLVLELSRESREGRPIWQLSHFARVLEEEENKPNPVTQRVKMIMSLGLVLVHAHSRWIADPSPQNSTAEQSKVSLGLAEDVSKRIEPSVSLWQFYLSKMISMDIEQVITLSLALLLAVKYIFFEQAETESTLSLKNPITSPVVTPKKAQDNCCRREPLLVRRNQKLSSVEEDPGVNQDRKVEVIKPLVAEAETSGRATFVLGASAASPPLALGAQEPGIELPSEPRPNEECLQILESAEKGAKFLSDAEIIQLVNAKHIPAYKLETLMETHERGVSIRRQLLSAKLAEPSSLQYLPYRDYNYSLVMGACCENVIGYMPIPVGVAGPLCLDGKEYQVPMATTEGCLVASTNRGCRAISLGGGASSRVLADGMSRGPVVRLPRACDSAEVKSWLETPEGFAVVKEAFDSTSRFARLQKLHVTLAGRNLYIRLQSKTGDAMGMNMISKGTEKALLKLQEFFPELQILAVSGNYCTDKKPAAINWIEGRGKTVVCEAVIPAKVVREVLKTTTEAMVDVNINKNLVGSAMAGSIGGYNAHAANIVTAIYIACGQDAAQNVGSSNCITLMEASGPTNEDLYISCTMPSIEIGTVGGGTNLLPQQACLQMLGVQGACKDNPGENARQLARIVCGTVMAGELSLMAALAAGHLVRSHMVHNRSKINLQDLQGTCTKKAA
Protocol: 1) Inhibition of HKG-CoA reductase activity in solubilized enzyme preparations from rat liver microsomes
HMG-CoA reductase activity was measured on solubilized enzyme preparations from liver microsomes of rats which had been induced by conversion into the day/night rhythm using cholestyramine (®Cuemid). (S,R)^14 C-HMG-CoA was used as a substrate, and the concentration of NADPH was maintained during the incubation by a regenerating system. The separation of ^14 C-mevalonate from substrate and other products (for example ^14 C-HMG) was carried out by column elution, the elution profile of each individual sample being determined. The regular addition of ^3 H-mevalonate was avoided as the determination gives the data relative to the inhibitory action. The enzyme-free control, the enzyme-containing normal mixture (=100%) and those containing preparation additives were in each case treated together in one series of experiments. The sodium salts of the dihydroxycarboxylic acids of the formula II were always employed as the preparation in this test. Each individual value was formed as the mean value of 3 parallel samples. The significance of the mean value differences between preparation-free and preparation-containing samples was evaluated by the t-test.

HEP G2 cells = test: Inhibition of cholesterol biosynthesis in cell cultures (HEP G2 cells), incorporation of 14C-sodium acetate in cholesterol; assay type: cell-based; details: for IC50 / IC70: Homo sapiens, HepG2, sodium salts, test compounds corrected by deviation of mevinolin sodium from its mean value; for IC50: read-out: IC50 (concentration necessary for a 50% inhibition); for IC70: read-out: IC70 (concentration necessary for a 70% inhibition); for Relative potency in % / Relative potency in % (value in parentheses): mevinolin sodium = 100; for Relative potency in %: from IC50; for Relative potency in % (value in parentheses): corresponds to IC70
Protocol: 2) Inhibition of cholesterol biosynthesis in cell cultures (EEP G2 cells)
Determination of the inhibition of the incorporation of ^14 C-sodium acetate in cholesterol
Monolayers of HEP G2 cells in lipoprotein-free medium were preincubated with various concentrations of the sodium salts of the dihydroxycarboxylic acids of the formula II for 1 hour. After adding ^14 C-labeled sodium acetate, the incubation was continued for 3 hours. Tritium-labeled cholesterol was added as an internal standard and an aliquot of the cells was subjected to alkaline hydrolysis. The lipids were extracted using chloroform/methanol 2: 1. After adding carrier cholesterol, the lipid mixture was preparatively separated on TLC plates using chloroform/acetone 9: 1. The cholesterol zone was made visible by staining with iodine vapor, additionally detected using a TLC radio scanner and then scraped off. The amount of ^14 C-cholesterol formed was determined scintigraphically and related to mg of cell protein. The same procedure was carried out with cells from the Bame culture without preincubation with a test compound (so-called "solvent control"). The potency of the test compounds was determined by comparison of the biosynthesized ^14 C-cholesterol in test runs and in "solvent control".

serum total cholesterol = test: Hypocholesterolemic activity in rabbits after p.o. administration; assay type: in vivo, male white New Zealand rabbits; details: for Serum total cholesterol, % change compared to control group: rabbit p.o., 5 mg/kg per day (constant)
Protocol: 4) Hypocholesterolemic activity in rabbits after p.o. administration
Normolipemic male white New Zealand rabbits, body weight 3-3.5 kg, were divided into groups of 5 animals. The groups in each case received one of the test compounds (sodium salts of the compounds of the formula II), suspended in 1% aqueous methylcellulose (®Tylose MH 300), 5.10 or 20 mg/kg/day daily in the morning by stomach tube. The animals of the control groups received only Tylose MH 300. Every 3-4 days samples of venous blood were taken from all animals 20 hours after the oral administration. The serum total cholesterol was determined enzymatically in these samples using the test combination of Boehringer Mannheim (CHOD-PAP high performance method). The serum cholesterol level of the treated animals was compared with that of the control groups. A "discharge phase" followed the 20-day "treatment phase", in which the change in the serum cholesterol level was further monitored.

[1] = tested on: microsomal lipid peroxidation; test: Inhibition of microsomal lipid peroxidation (in vitro); assay type: biochemical; details: for IC50: microsomes, read-out: IC50 (50% inhibition of lipid peroxidation)
Protocol: 5) Inhibition of microsomal lipid peroxidation (in vitro)
The inhibition of lipid peroxidation was measured under the experimental conditions described by H. Wafers and H. Sies, Eur. J. Biochem. 174, 353-357 (1988). The microsomes were obtained according to the literature cited therein. IC50 denotes the concentration of the test compound in moles per liter which causes a 50% inhibition of lipid peroxidation.

LDL = test: Inhibition of Cu2+-catalyzed LDL oxidation in vitro; assay type: biochemical, porcine; details: 5 μM Cu2+, 2 hours at 37° C.; for IC50: fluorescence 430 nm, read-out: IC50 (50% inhibition of LDL oxidation)
Protocol: 6) Inhibition of Cu^2+ -catalyzed LDL oxidation in vitro LDL was isolated from porcine plasma which contained EDTA (1 mg/ml) by ultracentrifugation in salt solutions of NaCl/NaBr between the densities 1.019 and 1.063 g/ml (cf. R. J. Havel et al., J. Clin. Invest. 43, 1345 (1955)). LDL was then dialyzed against phosphate-buffered saline (160 mM NaCl, 10 mM NaH2 PO4), pH 7.4 and stored under nitrogen at 4° C. Before the oxidation process, the LDL fractions were diluted to a final protein concentration of 0.1 mg/ml using phosphate-buffered saline and 2.5 ml aliquot parts were pre-incubated under nitrogen with the test compounds (25 μl of ethanolic solution) for 1 hour at 37° C. (cf. McLean et al., Biochemistry 1989, 28, 321). For the Cu^2+ -catalyzed oxidation of LDL, 12.5 μl of a 1 mM CuSO4 solution were added to each sample, a 5 μM Cu^2+ concentration resulting. The incubation was carried out for 2 hours at 37° C. and in an air atmosphere. The fluorescence intensity was measured at 430 nm (excitation wavelength 365 nm) (cf. Steinbrecher, U. P., J. Biol. Chem. 1987, 262, 3603). […] In addition, the inhibition using a 10^-5 N concentration of the test compound is indicated in %.

SMILES	IC50 (HMG-CoA reductase) [nM]	IC50 (HEP G2 cells) [nM]	IC70 (HEP G2 cells) [nM]	Relative potency in % (HEP G2 cells) [%]	Relative potency in % (value in parentheses) (HEP G2 cells) [%]	Serum total cholesterol, % change compared to control group (serum total cholesterol; administration 3) [%]	Serum total cholesterol, % change compared to control group (serum total cholesterol; administration 10) [%]	Serum total cholesterol, % change compared to control group (serum total cholesterol; administration 14) [%]	Serum total cholesterol, % change compared to control group (serum total cholesterol; discharge phase 3) [%]	Serum total cholesterol, % change compared to control group (serum total cholesterol; discharge phase 6) [%]	Serum total cholesterol, % change compared to control group (serum total cholesterol; discharge phase 11)	Inhibition at 10^-5 mol/l [1] [%]	IC50 (LDL) [nM]	onset of action / maximum action (serum total cholesterol; Table 4)	plasma cholesterol decrease compared with mevinolin and compound C (serum total cholesterol; Table 4, lower dosage)	Serum total cholesterol, % change compared to control group (serum total cholesterol; administration 17) [%]	Serum total cholesterol, % change compared to control group (serum total cholesterol; administration 20) [%]	Inhibition at 10^-5 M (LDL; 10^-5 M) [%]	IC50 [1] [nM]
CC(C)c1c(OC[C@@H](O)C[C@@H](O)CC(=O)O)c(C(C)C)c(C(C)C)c(O)c1-c1ccc(F)cc1 [Example 9]	4	7.5	12	667	1250	-8	-12	-15	-4	-4	+6%	< 10	6000	–	–	–	–	–	–
CC(C)c1cc(Sc2ccc(F)cc2)cc(-c2ccc(F)cc2)c1OC[C@@H](O)C[C@@H](O)CC(=O)O [Example 1]	6	4.3	~0.8	1163	18750	-44	-46	-43	-22	-17	-6%	< 10	> 10000	commences very early on. The maximum action was virtually achieved even in the first measurement after 3 days of treatment	substantially greater plasma cholesterol decrease than mevinolin or the compound C in spite of lower dosage	-42	-48	41	–
CC(=O)Oc1c(C(C)C)c(-c2ccc(F)cc2)c(O)c(C(C)C)c1C(C)C [Process Example 25, 2,3,5-Triisopropyl-4-acetoxy-6-(p-fluorophenyl)phenol]	–	–	–	–	–	–	–	–	–	–	–	83	150	–	–	–	–	–	4800
CC(C)c1cc(Sc2ccc(F)cc2)cc(-c2ccc(F)cc2)c1O [Process Example 6, 2-(p-Fluorophenyl)-4-(p-fluorophenylthio)-6-isopropylphenol]	–	–	–	–	–	–	–	–	–	–	–	95	1000	–	–	–	–	–	3000
CC(C)c1c(O)c(C(C)C)c(C(C)C)c(OC[C@@H](O)C[C@@H](O)CC(=O)O)c1-c1ccc(F)cc1 [Example 8]	2	4	–	1250	–	–	–	–	–	–	–	27	1100	–	–	–	–	–	–
